Reference: paper PMC11741006, “Raman active diyne-girder conformationally constrained p53 stapled peptides bind to MDM2 for visualisation without fluorophores” (RSC Chemical Biology, 2025)
Residues, ends and D or L forms follow the SMILES beside them. *: point of attachment. FITC = O=C1OC2(c3ccc(O)cc3Oc3cc(O)ccc32)c2ccc(NC(=S)*)cc21; Ahx = NCCCCCC(=O)O

Experiments:
[1] = Circular dichroism spectroscopy, percentage helicity; assay type: physicochemical; settings: CD in PBS pH 7.4, room temperature; from MRE at 222 nm, equations of Luo and Baldwin; peptides analysed at 25 μM and 50 μM
Protocol: Following the successful synthesis of the diyne peptide 4, it was important to identify the effect of the modified staple on the α-helical nature of the peptide. The effectiveness of the diyne staple as an α-helical constraint was assessed by CD. Experiments were set out to directly compare the diyne stapled peptide 4 to the alkene stapled peptides (cis-2 and trans-3), with the linear peptide 1 employed as a control. CD was performed at two concentrations to investigate whether peptide concentration influenced helicity, as coiled-coil structures are known to increase helicity.[25] Peptide concentrations were quantified using a NanoDrop™ One Microvolume UV-Vis spectrophotometer using the UV absorption of the peptides at 280 nm.[26] Extinction coefficients of the peptides were calculated from Trp and Tyr residues and the Beer–Lambert law employed to calculate the concentrations.
Each of the peptides (1–4) were analysed at 25 μM and 50 μM in phosphate buffered saline (PBS, pH 7.4) (Fig. 3). CD spectra were measured from 190–260 nm and the characteristic α-helical negative maxima examined for their intensity at 208 nm and 222 nm.[27] […] This is to be expected due to the random coil nature of 1. […] Helicity calculations were performed following conversion of the measured degrees of ellipticity (θ) data to mean residue ellipticity (MRE) (eqn (S1), ESI ^†). […]
Cell Permeability Fluorescence Assay […]

MDM2 (1–138) = molecular target: T1, MDM2 (1–138) (Homo sapiens, UniProt Q00987); assay: Fluorescence polarisation direct binding assay, MDM2; settings: direct FP binding; 10 nM FITC peptide in Tris buffer pH 7.6; protein serially diluted 10 μM to 9 pM; 3 h, room temperature; quadratic ligand depletion fit; n = 3
T1 construct: His6-GST (TEV-cleavable) (N, cleaved yes); made in house; host or cells: E. coli Rosetta 2(DE3)pLacI
Protocol: The binding properties of the peptides were assessed using a biophysical FP assay. Specifically, a direct binding assay was conducted to calculate the Kd values of the fluorescent peptide ligands binding to the target proteins. Fluorescently labelled peptides were tested for binding to MDM2 (1-138) and MDMX (1-134). […] All FP measurements were performed on a microplate reader (CLARIOstar) in black 384-well microplates with 20 μL of sample solution per well.
was added and serially diluted from 10 μM to 9 pM. Peptide (10 nM in Tris buffer pH 7.6) was then added to all wells and mixed. The sample were left to incubate at room temperature for 3 hours. Plates were placed in a PerkinElmer Victor X5 plate reader with excitation measured at 531 nm and emission measured at 595 nm. The raw data was normalized using baseline correction, where the baseline was defined as the fluorescence polarisation measured in the absence of peptide. Normalised data were then plotted in Prism 7.0 and fitted by using the quadratic ligand depletion model (Equation S3).
Y is the fluorescent polarisation signal measured at each datapoint. […]

MDMX (1–134) = molecular target: T2, MDMX (1–134) (Homo sapiens, UniProt O15151); assay: Fluorescence polarisation direct binding assay, MDMX; settings: direct FP binding; 10 nM FITC peptide in Tris buffer pH 7.6; protein serially diluted 10 μM to 9 pM; 3 h, room temperature; quadratic ligand depletion fit; n = 3
T2 construct: tested against MDMX (1–134); His6-GST (TEV-cleavable) (N, cleaved yes); made in house; host or cells: E. coli Rosetta 2(DE3)pLysS
T2 sequence (O15151 1-134): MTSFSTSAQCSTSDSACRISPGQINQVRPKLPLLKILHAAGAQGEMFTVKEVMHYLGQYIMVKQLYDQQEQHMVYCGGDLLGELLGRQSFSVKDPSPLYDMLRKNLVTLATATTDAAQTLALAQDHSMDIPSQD
Protocol: The binding properties of the peptide were assessed using a biophysical FP assay. Specifically, a direct binding assay was conducted to calculate the Kd values of the fluorescent peptide ligands binding to the target proteins (eqn (S3), ESI ^†).[29] […] The peptides were first tested for binding with MDM2 (1–138). […] Peptide solutions were made up to a concentration of 10 nM and varying concentrations of protein (10 μM to 9 pM) were incubated with the peptide with FP measurements taken after 3 h (Fig. 4). […] The final analogue examined for its binding of MDM2 was 5FITC, the diyne negative control. […]
resuspension buffer. […]
The His6-GST -tagged proteins were then cleaved with TEV while dialyzing into 330 mM NaCl, PBS, 5 mM BME for 20 hours at 4 °C. […] Protein concentration was measured at an absorbance of 595 nm with the Bio-rad Protein Assay Kit II using bovine serum albumin as a standard. […]
Fluorescence Polarisation Binding Assay
The binding properties of the peptides were assessed using a biophysical FP assay. […] All FP measurements were performed on a microplate reader (CLARIOstar) in black 384-well microplates with 20 μL of sample solution per well. […]
was added and serially diluted from 10 μM to 9 pM. […] Plates were placed in a PerkinElmer Victor X5 plate reader with excitation measured at 531 nm and emission measured at 595 nm. […]

T1 sequence (Q00987 1-138): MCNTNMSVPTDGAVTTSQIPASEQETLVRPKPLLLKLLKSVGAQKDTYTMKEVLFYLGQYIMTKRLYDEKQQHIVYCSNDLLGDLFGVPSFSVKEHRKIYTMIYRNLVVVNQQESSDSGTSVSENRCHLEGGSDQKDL

Compound	percentage helicity [1] [%]	other results
Ac-LTFR8EYWAQ(Cba)S5SAA-NH2 (sidechain bridge or staple) [compound 2, i, i + 7 alkene stapled peptide ATSP-7041 (2/3), cis-isomer, acetylated]	48	–
CC(C)C[C@H](NC(=O)CCCCCNC(=S)Nc1ccc2c(c1)C(=O)OC21c2ccc(O)cc2Oc2cc(O)ccc21)C(=O)N[C@H](C(=O)N[C@@H](Cc1ccccc1)C(=O)N[C@@]1(C)CCCCCC#CC#CCCCCC[C@@](C)(C(=O)N[C@@H](CO)C(=O)N[C@@H](C)C(=O)N[C@@H](C)C(N)=O)NC(=O)[C@H](CC2CCC2)NC(=O)[C@H](CCC(N)=O)NC(=O)[C@H](C)NC(=O)[C@H](Cc2c[nH]c3ccccc23)NC(=O)[C@H](Cc2ccc(O)cc2)NC(=O)[C@H](CCC(=O)O)NC1=O)[C@@H](C)O [4FITC]	–	Kd (MDM2 (1–138)): 1.39 ± 0.08 nM
Ac-LTFS7EYWAQ(Cba)S7SAA-NH2 (sidechain bridge or staple) [compound 4, i, i + 7 diyne-girder stapled peptide analogue of ATSP-7041, acetylated]	59	–
CC(C)C[C@H](NC(=O)CCCCCNC(=S)Nc1ccc2c(c1)C(=O)OC21c2ccc(O)cc2Oc2cc(O)ccc21)C(=O)N[C@H](C(=O)N[C@@H](Cc1ccccc1)C(=O)N[C@@H](CCC(=O)O)C(=O)N[C@@H](Cc1c[nH]cn1)C(=O)N[C@@H](Cc1ccc(O)cc1)C(=O)N[C@@H](Cc1c[nH]c2ccccc12)C(=O)N[C@@H](C)C(=O)N[C@@H](CCC(N)=O)C(=O)N[C@@H](CC(C)C)C(=O)N[C@H](C(=O)N[C@@H](CO)C(N)=O)[C@@H](C)O)[C@@H](C)O [1FITC] ({FITC-Ahx}-LTFEHYWAQLTS-NH2)	–	Kd (MDMX (1–134)): 20.1 ± 0.23 nM
